Source: patent publication US11702411B2, “Pyridine, pyrazine, and triazine compounds as allosteric SHP2 inhibitors” (Revolution Medicines, Inc., priority 2017, dated 2023)
Like-named read-outs stand apart in the source and are kept apart here.

Target: SHP2 (Homo sapiens (Human), UniProt Q06124)
Assay: SHP2 allosteric inhibition assay (DiFMUP prompt fluorescence, activating peptide)
Type: biochemical
Conditions: 0.2 nM SHP2, 0.5 μM activating peptide, DiFMUP substrate
Excerpt: Without wishing to be bound by theory, SHP is allosterically activated through binding of bis-tyrosyl-phosphorylated peptides to its Src Homology 2 (SH2) domains. The latter activation step leads to the release of the auto-inhibitory interface of SHP2, which in turn renders the SHP2 protein tyrosine phosphatase (PTP) active and available for substrate recognition and reaction catalysis. The catalytic activity of SHP2 was monitored using the surrogate substrate DiFMUP in a prompt fluorescence assay format.
The phosphatase reactions were performed at room temperature in 96-well black polystyrene plate, flat bottom, non-binding surface (Corning, Cat #3650) using a final reaction volume of 100 μL and the following assay buffer conditions: 50 mM HEPES, pH 7.2, 100 mM NaCl, 0.5 mM EDTA, 0.05% P-20, 1 mM DTT.
The inhibition of SHP2 by compounds of the present disclosure (concentrations varying from 0.00005-10 μM) was monitored using an assay in which 0.2 nM of SHP2 was incubated with 0.5 μM of Activating Peptide 1 (sequence: H2N-LN(pY)IDLDLV(dPEG8)LST(pY)ASINFQK-amide) or Activating Peptide 2 (sequence: H2N-LN(pY)AQLWHA(dPEG8)LTI(pY)ATIRRF-amide). After 30-60-minutes incubation at 25° C., the surrogate substrate DiFMUP (Invitrogen, Cat #D6567) was added to the reaction and activity was determined by a kinetic read using a microplate reader (Envision, Perkin-Elmer or Spectramax M5, Molecular Devices). The excitation and emission wavelengths were 340 nm and 450 nm, respectively. Initial rates were determined from a linear fit of the data, and the inhibitor dose response curves were analyzed using normalized IC50 regression curve fitting with control based normalization.

IC50 (read-out: SHP2 Allosteric IC50) [nM]	IC50 (read-out: SHP2 IC50) [nM]	SMILES
≤ 50		C[C@@H]1OCC2(CCN(c3ncc(Sc4cccc(Cl)c4Cl)nc3CO)CC2)[C@@H]1N [Compound 30, {3-[(3S,4S)-4-amino-3-methyl-2-oxa-8-azaspiro[4.5]decan-8-yl]-6-[(2,3-dichlorophenyl)sulfanyl]pyrazin-2-yl}methanol]
≤ 50		C[C@@H]1OCC2(CCN(c3ncc(Sc4ccnc(C#N)c4Cl)nc3CO)CC2)[C@@H]1N [Compound 23, 4-({5-[(3S,4S)-4-amino-3-methyl-2-oxa-8-azaspiro[4.5]decan-8-yl]-6-(hydroxymethyl)pyrazin-2-yl}sulfanyl)-3-chloropyridine-2-carbonitrile]
≤ 50		COc1nccc(Sc2cnc(N3CCC4(CC3)CO[C@@H](C)[C@H]4N)c(CO)n2)c1Cl [Compound 24, {3-[(3S,4S)-4-amino-3-methyl-2-oxa-8-azaspiro[4.5]decan-8-yl]-6-[(3-chloro-2-methoxypyridin-4-yl)sulfanyl]pyrazin-2-yl}methanol]
50 to 500	145	N[C@@H]1CCCC12CCN(c1ncc(-c3ccnc(Cl)c3Cl)nc1CO)CC2 [Compound 1, (3-[(1R)-1-amino-8-azaspiro[4.5]decan-8-yl]-6-(2,3-dichloropyridin-4-yl)pyrazin-2-yl)methanol]
50 to 500	461	CC1(N)CCN(c2ncc(-c3cccc(Cl)c3Cl)nc2CO)CC1 [Compound 3, [3-(4-amino-4-methylpiperidin-1-yl)-6-(2,3-dichlorophenyl)pyrazin-2-yl]methanol]
50 to 500		C[C@@H]1OCC2(CCN(c3ncc(-c4cccc(Cl)c4Cl)nc3C(F)F)CC2)[C@@H]1N [Compound 35, (3S,4S)-8-[5-(2,3-dichlorophenyl)-3-(difluoromethyl)pyrazin-2-yl]-3-methyl-2-oxa-8-azaspiro[4.5]decan-4-amine]
≤ 50		C[C@@H]1OCC2(CCN(c3ncc(Sc4cc(N)ncc4Cl)nc3CO)CC2)[C@@H]1N [Compound 32, {3-[(3S,4S)-4-amino-3-methyl-2-oxa-8-azaspiro[4.5]decan-8-yl]-6-[(2-amino-5-chloropyridin-4-yl)sulfanyl]pyrazin-2-yl}methanol]
50 to 500		C[C@@H]1OCC2(CCN(c3ncc(-c4c(O)ccc(Cl)c4Cl)nc3CO)CC2)[C@@H]1N [Compound 8, 2-{5-[(3S,4S)-4-amino-3-methyl-2-oxa-8-azaspiro[4.5]decan-8-yl]-6-(hydroxymethyl)pyrazin-2-yl}-3,4-dichlorophenol]
≤ 50		C[C@@H]1OCC2(CCN(c3ncc(Sc4cccc(C#N)c4Cl)nc3CO)CC2)[C@@H]1N [Compound 22, 3-({5-[(3S,4S)-4-amino-3-methyl-2-oxa-8-azaspiro[4.5]decan-8-yl]-6-(hydroxymethyl)pyrazin-2-yl}sulfanyl)-2-chlorobenzonitrile]
≤ 50		CC1(N)CCN(c2ncc(Sc3ccnc(N)c3Cl)nc2CO)CC1 [Compound 4, (6-((2-amino-3-chloropyridin-4-yl)thio)-3-(4-amino-4-methylpiperidin-1-yl)pyrazin-2-yl)methanol]
> 500		COc1ccc(Cl)c(Cl)c1-c1cnc(N2CCC3(CC2)CO[C@@H](C)[C@H]3N)c(CO)n1 [Compound 7, {3-[(3S,4S)-4-amino-3-methyl-2-oxa-8-azaspiro[4.5]decan-8-yl]-6-(2,3-dichloro-6-methoxyphenyl)pyrazin-2-yl}methanol]
50 to 500	88	N[C@@H]1CCCC12CCN(c1ncc(-c3cccc(Cl)c3Cl)nc1CO)CC2 [Compound 2, (3-[(1R)-1-amino-8-azaspiro[4.5]decan-8-yl]-6-(2,3-dichlorophenyl)pyrazin-2-yl)methanol]
≤ 50		C[C@@H]1OCC2(CCN(c3ncc(Sc4cccc(C(=O)N(C)C)c4Cl)nc3CO)CC2)[C@@H]1N [Compound 28, 3-({5-[(3S,4S)-4-amino-3-methyl-2-oxa-8-azaspiro[4.5]decan-8-yl]-6-(hydroxymethyl)pyrazin-2-yl}sulfanyl)-2-chloro-N,N-dimethylbenzamide]
≤ 50		C[C@@H]1OCC2(CCN(c3ncc(Sc4ccnc(N)c4Cl)nc3CO)CC2)[C@@H]1N [Compound 31, {6-[(2-amino-3-chloropyridin-4-yl)sulfanyl]-3-[(3S,4S)-4-amino-3-methyl-2-oxa-8-azaspiro[4.5]decan-8-yl]pyrazin-2-yl}methanol]
50 to 500		C[C@@H]1OCC2(CCN(c3ncc(-c4ccc5[nH]ncc5c4)nc3CO)CC2)[C@@H]1N [Compound 20, {3-[(3S,4S)-4-amino-3-methyl-2-oxa-8-azaspiro[4.5]decan-8-yl]-6-(2H-indazol-5-yl)pyrazin-2-yl}methanol]
≤ 50		C[C@@H]1OCC2(CCN(c3ncc(-c4cc5ccccc5n4C)nc3CO)CC2)[C@@H]1N [Compound 15, {3-[(3S,4S)-4-amino-3-methyl-2-oxa-8-azaspiro[4.5]decan-8-yl]-6-(1-methyl-1H-indol-2-yl)pyrazin-2-yl}methanol]
≤ 50		C[C@@H]1OCC2(CCN(c3ncc(-c4cccc5cc[nH]c45)nc3CO)CC2)[C@@H]1N [Compound 11, {3-[(3S,4S)-4-amino-3-methyl-2-oxa-8-azaspiro[4.5]decan-8-yl]-6-(1H-indol-7-yl)pyrazin-2-yl}methanol]
≤ 50		C[C@@H]1OCC2(CCN(c3ncc(Sc4ccnc(NC5CCOCC5)c4Cl)nc3CO)CC2)[C@@H]1N [Compound 27, {3-[(3S,4S)-4-amino-3-methyl-2-oxa-8-azaspiro[4.5]decan-8-yl]-6-({3-chloro-2-[(oxan-4-yl)amino]pyridin-4-yl}sulfanyl)pyrazin-2-yl}methanol]
50 to 500		C[C@@H]1OCC2(CCN(c3ncc(-c4cc(Cl)c5cn[nH]c5c4)nc3CO)CC2)[C@@H]1N [Compound 13, {3-[(3S,4S)-4-amino-3-methyl-2-oxa-8-azaspiro[4.5]decan-8-yl]-6-(4-chloro-2H-indazol-6-yl)pyrazin-2-yl}methanol]
≤ 50		C[C@@H]1OCC2(CCN(c3ccc(Sc4ccnc(N)c4Cl)nc3CO)CC2)[C@@H]1N [Compound 5, [6-[(2-amino-3-chloro-4-pyridyl)sulfanyl]-3-[(3S,4S)-4-amino-3-methyl-2-oxa-8-azaspiro[4.5]decan-8-yl]-2-pyridyl]methanol]
50 to 500		C[C@@H]1OCC2(CCN(c3ncc(-c4c(Cl)ccc(Cl)c4Cl)nc3CO)CC2)[C@@H]1N [Compound 18, {3-[(3S,4S)-4-amino-3-methyl-2-oxa-8-azaspiro[4.5]decan-8-yl]-6-(2,3,6-trichlorophenyl)pyrazin-2-yl}methanol]
≤ 50		C[C@@H]1OCC2(CCN(c3ncc(Sc4ccnc(N5CC(S(C)(=O)=O)C5)c4Cl)nc3CO)CC2)[C@@H]1N [Compound 26, {3-[(3S,4S)-4-amino-3-methyl-2-oxa-8-azaspiro[4.5]decan-8-yl]-6-{[3-chloro-2-(3-methanesulfonylazetidin-1-yl)pyridin-4-yl]sulfanyl}pyrazin-2-yl}methanol]
50 to 500		N[C@@H]1CCCC12CCN(c1ncc(-c3cccc(Cl)c3Cl)nc1C(F)F)CC2 [Compound 34, (1R)-8-[5-(2,3-dichlorophenyl)-3-(difluoromethyl)pyrazin-2-yl]-8-azaspiro[4.5]decan-1-amine]
50 to 500		C[C@@H]1OCC2(CCN(c3ncc(-c4c(Cl)c(Cl)cc5c4OCO5)nc3CO)CC2)[C@@H]1N [Compound 6, {3-[(3S,4S)-4-amino-3-methyl-2-oxa-8-azaspiro[4.5]decan-8-yl]-6-(5,6-dichloro-2H-1,3-benzodioxol-4-yl)pyrazin-2-yl}methanol]
